Assays:
[1] = biological target: T1, ASK1 T838 auto phosphorylation (Homo sapiens, UniProt Q99683); test: ASK1 (AUTO PHOS T838) assay, MSD format, in HEK-293T cells transfected with ASK1-V5; format: cell-based; conditions: ASK1 T838 auto phosphorylation in HEK-293T cells, 1 hr compound incubation; class symbols
T1 sequence (Q99683 1-1374): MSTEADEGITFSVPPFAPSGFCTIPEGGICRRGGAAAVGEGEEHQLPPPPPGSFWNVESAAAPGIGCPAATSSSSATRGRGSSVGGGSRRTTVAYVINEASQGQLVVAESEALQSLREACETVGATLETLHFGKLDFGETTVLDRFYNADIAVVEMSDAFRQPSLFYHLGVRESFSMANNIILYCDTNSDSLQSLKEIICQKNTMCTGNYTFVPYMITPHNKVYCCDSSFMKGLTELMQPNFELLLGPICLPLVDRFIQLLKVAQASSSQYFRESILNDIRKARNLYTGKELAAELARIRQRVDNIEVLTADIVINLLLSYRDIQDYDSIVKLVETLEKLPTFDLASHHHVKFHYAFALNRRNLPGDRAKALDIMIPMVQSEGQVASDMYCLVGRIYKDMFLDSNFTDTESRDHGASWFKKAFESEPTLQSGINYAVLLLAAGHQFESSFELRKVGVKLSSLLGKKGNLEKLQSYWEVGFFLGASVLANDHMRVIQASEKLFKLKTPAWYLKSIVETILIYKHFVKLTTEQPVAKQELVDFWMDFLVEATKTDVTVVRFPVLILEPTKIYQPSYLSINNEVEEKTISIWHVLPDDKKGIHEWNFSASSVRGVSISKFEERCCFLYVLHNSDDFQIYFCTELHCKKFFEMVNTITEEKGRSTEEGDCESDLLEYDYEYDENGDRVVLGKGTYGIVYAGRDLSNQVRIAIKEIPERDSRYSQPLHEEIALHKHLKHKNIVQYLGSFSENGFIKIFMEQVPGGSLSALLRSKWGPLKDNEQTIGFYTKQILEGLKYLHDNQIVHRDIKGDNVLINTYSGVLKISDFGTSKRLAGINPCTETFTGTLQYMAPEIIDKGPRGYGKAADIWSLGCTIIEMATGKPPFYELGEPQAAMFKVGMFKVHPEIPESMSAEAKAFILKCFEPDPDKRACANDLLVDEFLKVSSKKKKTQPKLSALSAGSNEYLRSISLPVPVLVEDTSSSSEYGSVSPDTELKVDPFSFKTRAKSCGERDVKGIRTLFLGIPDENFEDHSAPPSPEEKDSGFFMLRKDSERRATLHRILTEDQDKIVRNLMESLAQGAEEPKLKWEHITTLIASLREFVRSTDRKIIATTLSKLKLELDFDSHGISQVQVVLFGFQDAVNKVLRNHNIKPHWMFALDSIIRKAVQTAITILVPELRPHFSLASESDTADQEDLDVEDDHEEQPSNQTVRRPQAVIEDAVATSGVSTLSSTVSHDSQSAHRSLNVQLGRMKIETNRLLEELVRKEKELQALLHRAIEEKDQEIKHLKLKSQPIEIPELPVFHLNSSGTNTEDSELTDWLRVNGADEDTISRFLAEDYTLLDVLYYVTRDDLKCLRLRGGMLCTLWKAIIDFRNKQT
Procedure, shortened: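 HEK-293T cells transiently transfected with full-length ASK1-V5 plasmid were replated, then treated 1 h at 37 °C with a 10-point, 3-fold series from 20 μM. Lysates were probed by MSD with anti-pASK1 T838 and a sulfo-tag secondary, read by chemiluminescence. IC50 came from a 4-parameter fit of normalized % activity.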

[2] = In vivo brain penetration, rat Kpuu study; conditions: brain and plasma (unbound concentrations), IV infusion for four hours (1 mg/kg) to steady state, Kpuu=Cu,b/Cu,p
Protocol: Example 113: In Vivo Brain Penetration To evaluate the CNS penetration of the compounds described herein, several compounds were selected for in vivo rat Kpuu studies. In these experiments the compounds are administered via an IV infusion (using N,N-dimethylacetamide:ethanol:1,2-propylene glycol:water in a 1:1:3:5 ratio as the vehicle) in the carotid artery for a period of four hours (1 mg/kg, 0.1 mg/mL) to reach steady state. After this time the plasma and brain concentration levels are quantified, and the values are adjusted by the measured protein binding in plasma and brain homogenate to calculate the Kpuu (see Di, […] . Blood-Brain Barrier in Drug Discovery (Wiley)) according to the equation below. Kpuu=Cu,b/Cu,p Wherein: • Cu,b=Unbound concentration in brain (C×fu,b). (C=concentration at steady state; fu,b=fraction unbound in brain) • And in which: Cu,p=Unbound concentration in plasma (C×fu,p). (C=concentration at steady state; fu,p=fraction unbound in plasma) Plasma and brain protein binding values were generated via the Rapid Equilibrium Dialysis method. The compound of interest was incubated in K2EDTA plasma and brain homogenate (homogenized 1:7 (w:v) in 1×PBS) purchased from BioIVT (Westbury, NY), opposite a buffered compartment of 100 mM Potassium phosphate/150 mM Sodium chloride, pH 7.4, at 1 μM for 4 hr and 6 hr respectively. At the conclusion of incubation samples were taken from both matrix and buffered compartments, matrix-matched using blank buffer and matrix, extracted with acetonitrile, diluted with water, and analyzed utilizing an Agilent RapidFire 365 high-throughput LC coupled with MS/MS detection via an AB Sciex 5500. Free fractions (fu) were then calculated by comparing internal standard/analyte peak-area ratios of matrix and buffered compartments. […] Total drug concentration in plasma and brain tissue was measured via well-established bioanalytical extraction (protein precipitation) and detection methods (LC-MS/MS).

ASK1/MAP3K5 = biological target: T2, ASK1/MAP3K5 (Homo sapiens, UniProt Q99683); test: ASK1/MAP3K5 kinase assay by Reaction Biology Corp. (headed ASK1 TR-FRET Assay); format: biochemical; conditions: 20 μM myelin basic protein, 10 μM ATP
T2 sequence (Q99683 1-1374): T1 sequence (Q99683 1-1374)
Procedure, shortened: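 Radiometric filter-binding assay with ASK1/MAP3K5, 20 μM MBP substrate and 10 μM ATP plus ^33P-ATP in HEPES pH 7.5 buffer with 1% DMSO. Compounds were preincubated with kinase 20 min, and the reaction then ran 2 hours at room temperature.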

Row | SMILES | IC50 [1] | Kp uu at 4 h [2] | IC50 (ASK1/MAP3K5; class symbols) | IC50 (ASK1/MAP3K5; class given in words)
1 | COc1nn(-c2ncccc2C)cc1C(=O)Nc1cccc(-c2nncn2C(C)C)n1 [Example 62, N-(6-(4-Isopropyl-4H-1,2,4-triazol-3-yl)pyridin-2-yl)-3-methoxy-1-(3-methylpyridin-2-yl)-1H-pyrazole-4-carboxamide] | ≤ 1 µM | 0.16 | ≤ 0.1 µM | –
2 | C=CCn1cc(C(=O)Nc2cccc(-c3nncn3C(C)C(F)(F)F)n2)c(OC)n1 (stereo not shown) [Example 56, 1-Allyl-3-methoxy-N-(6-(4-(1,1,1-trifluoropropan-2-yl)-4H-1,2,4-triazol-3-yl)pyridin-2-yl)-1H-pyrazole-4-carboxamide] | ≤ 1 µM | 0.33 | ≤ 0.1 µM | –
3 | COc1nn(C)cc1C(=O)Nc1cccc(-c2nncn2C(C)C(F)F)n1 (stereo not shown) [Example 26, N-(6-(4-(1,1-Difluoropropan-2-yl)-4H-1,2,4-triazol-3-yl)pyridin-2-yl)-3-methoxy-1-methyl-1H-pyrazole-4-carboxamide] | ≤ 1 µM | – | ≤ 0.1 µM | –
4 | COc1nn(C)cc1C(=O)Nc1cccc(-c2nncn2[C@@H](C)C(C)C)n1 [Example 29, (S)-3-Methoxy-1-methyl-N-(6-(4-(3-methylbutan-2-yl)-4H-1,2,4-triazol-3-yl)pyridin-2-yl)-1H-pyrazole-4-carboxamide] | ≤ 1 µM | – | ≤ 0.1 µM | –
5 | COc1nn(C)cc1C(=O)Nc1cccc(-c2nncn2C2(C)COC2)n1 [Example 49, 3-Methoxy-1-methyl-N-(6-(4-(3-methyloxetan-3-yl)-4H-1,2,4-triazol-3-yl)pyridin-2-yl)-1H-pyrazole-4-carboxamide] | > 10 µM | – | – | ≥ 10 µM
6 | COc1nn(C)cc1C(=O)Nc1cccc(-c2nncn2C2(C(F)(F)F)CC2)n1 [Example 25, 3-Methoxy-1-methyl-N-(6-(4-(1-(trifluoromethyl)cyclopropyl)-4H-1,2,4-triazol-3-yl)pyridin-2-yl)-1H-pyrazole-4-carboxamide] | ≤ 1 µM | – | ≤ 0.1 µM | –
7 | CC(C)n1cnnc1-c1cccc(NC(=O)c2cn(-c3cncc(Br)c3)nc2C(F)F)n1 [Example 74, 1-(5-Bromopyridin-3-yl)-3-(difluoromethyl)-N-(6-(4-isopropyl-4H-1,2,4-triazol-3-yl)pyridin-2-yl)-1H-pyrazole-4-carboxamide] | ≤ 1 µM | – | ≤ 0.1 µM | –
8 | Cn1cc(C(=O)Nc2cccc(-c3nncn3C3(C(F)(F)F)CC3)n2)c(C(F)F)n1 [Example 24, 3-(Difluoromethyl)-1-methyl-N-(6-(4-(1-(trifluoromethyl)cyclopropyl)-4H-1,2,4-triazol-3-yl)pyridin-2-yl)-1H-pyrazole-4-carboxamide] | ≤ 1 µM | – | ≤ 0.1 µM | –
9 | COc1nn(-c2cncc(OC(C)C)c2)cc1C(=O)Nc1cccc(-c2nncn2C(C)C)n1 [Example 72, 1-(5-Isopropoxypyridin-3-yl)-N-(6-(4-isopropyl-4H-1,2,4-triazol-3-yl)pyridin-2-yl)-3-methoxy-1H-pyrazole-4-carboxamide] | ≤ 1 µM | – | ≤ 0.1 µM | –
10 | COc1nn(C)cc1C(=O)Nc1cccc(-c2nncn2[C@H](C)C(F)F)n1 (single isomer, unassigned) [Example 28] | ≤ 1 µM | – | ≤ 0.1 µM | –
11 | CC(C)n1cnnc1-c1cccc(NC(=O)c2cn(CC3CC3)nc2C(F)F)n1 [Example 50, 1-(Cyclopropylmethyl)-3-(difluoromethyl)-N-(6-(4-isopropyl-4H-1,2,4-triazol-3-yl)pyridin-2-yl)-1H-pyrazole-4-carboxamide] | ≤ 1 µM | – | ≤ 0.1 µM | –
12 | COc1nn(C)cc1C(=O)Nc1cccc(-c2nncn2C2CCCC2)n1 [Example 20, N-(6-(4-Cyclopentyl-4H-1,2,4-triazol-3-yl)pyridin-2-yl)-3-methoxy-1-methyl-1H-pyrazole-4-carboxamide] | ≤ 1 µM | – | ≤ 0.1 µM | –
13 | COc1nn(CCN(C)C)cc1C(=O)Nc1cccc(-c2nncn2C(C)C)n1 [Example 45, 1-(2-(Dimethylamino)ethyl)-N-(6-(4-isopropyl-4H-1,2,4-triazol-3-yl)pyridin-2-yl)-3-methoxy-1H-pyrazole-4-carboxamide] | ≤ 1 µM | – | ≤ 0.1 µM | –
14 | COc1nn(C)cc1C(=O)Nc1cccc(-c2nncn2C2CCC2(F)F)n1 (stereo not shown) [Example 30, N-(6-(4-(2,2-Difluorocyclobutyl)-4H-1,2,4-triazol-3-yl)pyridin-2-yl)-3-methoxy-1-methyl-1H-pyrazole-4-carboxamide] | ≤ 1 µM | – | ≤ 0.1 µM | –
15 | COc1cncc(-n2cc(C(=O)Nc3cccc(-c4nncn4C(C)C)n3)c(C(F)F)n2)c1 [Example 78, 3-(Difluoromethyl)-N-(6-(4-isopropyl-4H-1,2,4-triazol-3-yl)pyridin-2-yl)-1-(5-methoxypyridin-3-yl)-1H-pyrazole-4-carboxamide] | ≤ 1 µM | – | ≤ 0.1 µM | –
16 | COCc1nn(C)cc1C(=O)Nc1cccc(-c2nncn2[C@@H](C)C(F)(F)F)n1 [Example 14] | ≤ 1 µM | – | 0.1 to 1 µM | –
17 | CC(C)n1cnnc1-c1cccc(NC(=O)c2cn(C)nc2C(F)F)n1 [Example 6, 3-(Difluoromethyl)-N-(6-(4-isopropyl-4H-1,2,4-triazol-3-yl)pyridin-2-yl)-1-methyl-1H-pyrazole-4-carboxamide] | ≤ 1 µM | – | 0.1 to 1 µM | –
18 | COc1nn(C)cc1C(=O)Nc1cccc(-c2nncn2[C@@H](C)C(F)(F)F)n1 [Example 12, (S)-3-Methoxy-1-methyl-N-(6-(4-(1,1,1-trifluoropropan-2-yl)-4H-1,2,4-triazol-3-yl)pyridin-2-yl)-1H-pyrazole-4-carboxamide] | ≤ 1 µM | – | ≤ 0.1 µM | –
19 | COc1nn(-c2cccnn2)cc1C(=O)Nc1cccc(-c2nncn2[C@@H](C)C(F)(F)F)n1 [Example 85, (S)-3-Methoxy-1-(pyridazin-3-yl)-N-(6-(4-(1,1,1-trifluoropropan-2-yl)-4H-1,2,4-triazol-3-yl)pyridin-2-yl)-1H-pyrazole-4-carboxamide] | ≤ 1 µM | – | ≤ 0.1 µM | –
20 | COc1nn(C)cc1C(=O)Nc1cccc(-c2nncn2[C@H]2CCC2(F)F)n1 (single isomer, unassigned) [Example 31] | ≤ 1 µM | – | ≤ 0.1 µM | –
21 | COCCn1cc(C(=O)Nc2cccc(-c3nncn3[C@H](C)C(F)(F)F)n2)c(OC)n1 [Example 53, (R)-3-Methoxy-1-(2-methoxyethyl)-N-(6-(4-(1,1,1-trifluoropropan-2-yl)-4H-1,2,4-triazol-3-yl)pyridin-2-yl)-1H-pyrazole-4-carboxamide] | ≤ 1 µM | – | 0.1 to 1 µM | –
22 | COC[C@H](C)n1cnnc1-c1cccc(NC(=O)c2cn(C)nc2OC)n1 (single isomer, unassigned) [Example 33] | ≤ 1 µM | – | ≤ 0.1 µM | –
23 | C[C@@H](n1cnnc1-c1cccc(NC(=O)c2cn(C)nc2C(F)F)n1)C(F)(F)F [Example 23, (R)-3-(Difluoromethyl)-1-methyl-N-(6-(4-(1,1,1-trifluoropropan-2-yl)-4H-1,2,4-triazol-3-yl)pyridin-2-yl)-1H-pyrazole-4-carboxamide] | ≤ 1 µM | 0.14 | ≤ 0.1 µM | –

From patent US11999715B2, “ASK1 inhibiting agents” (BIOGEN MA INC., priority 2018, dated 2024)
